Patent US12377102B2, “Compounds for the prevention and treatment of medical disorders and uses thereof” (GALECTIN SCIENCES, LLC, priority 2017, dated 2025)

Experiments:
[1] = molecular target: T1, recombinant human Gal-3 (Homo sapiens, UniProt P17931); experiment: 1H-15N HSQC NMR shifts of 15N-labeled Gal-3 on compound addition; type: binding; conditions: full Gal-3
T1 construct: shifts of whole molecule of Gal-3 (Gal-3 FL); made in house; host or cells: E. coli BL21 (DE3)
Description: Heteronuclear ^15N NMR spectroscopy was used to evaluate the interaction of compounds described herein with galectin molecules, including but not limited to Gal-3, to assess the interaction residues on the Gal-3 molecule.
NMR experiments were carried out at 30° C. on Bruker 600 MHz, 700 MHz or 850 MHz spectrometers equipped with H/C/N triple-resonance probes and x/y/z triple-axis pulse field gradient units. […] Raw data were converted and processed by using NMRPipe and were analyzed by using NMRview.

[2] = molecular target: Gal-3 CRD (Homo sapiens, UniProt P17931); experiment: Fluorescence Polarization with fluorescein-labeled carbohydrate probe; type: binding; conditions: FITC linked lactose derivative probe
Chain of Gal-3 CRD (P17931 whole entry): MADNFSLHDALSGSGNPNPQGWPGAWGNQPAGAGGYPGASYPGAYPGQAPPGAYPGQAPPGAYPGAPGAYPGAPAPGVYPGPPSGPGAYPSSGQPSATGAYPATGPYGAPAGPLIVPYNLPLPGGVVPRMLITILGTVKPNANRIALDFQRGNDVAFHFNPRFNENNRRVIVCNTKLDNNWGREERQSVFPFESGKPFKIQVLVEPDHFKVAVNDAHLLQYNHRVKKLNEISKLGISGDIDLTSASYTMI

[3] = molecular target: Gal-3 binding to Integrin αMβ2 (Homo sapiens, UniProt P17931); experiment: ELISA Gal-3 binding to integrin αMβ2
Chain of Gal-3 binding to Integrin αMβ2 (P17931 2-250 limits assumed): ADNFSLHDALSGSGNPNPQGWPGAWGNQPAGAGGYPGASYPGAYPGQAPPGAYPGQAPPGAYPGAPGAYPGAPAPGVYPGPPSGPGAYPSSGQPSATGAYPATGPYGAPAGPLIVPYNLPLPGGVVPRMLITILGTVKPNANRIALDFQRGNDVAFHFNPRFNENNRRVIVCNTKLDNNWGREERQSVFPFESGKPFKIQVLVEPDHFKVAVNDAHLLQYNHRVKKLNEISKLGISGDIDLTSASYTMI
Source text: Illustrations of functional assays with Gal-3 binding pairing specific antibody with a Glycoprotein ligand, e.g. Gal-3 Binding-Protein (Gal-3 BP), Integrins, etc. (FIGS. 7A and 7B).
(§1) Activated ELISA plate is coated with αMβ2 integrin.

[4] = molecular target: galectin 1 interaction with integrin αMβ2 (Homo sapiens, UniProt P09382); experiment: ELISA galectin 1 interaction with integrin αMβ2; type: binding; conditions: FIG. 8E
Chain of galectin 1 interaction with integrin αMβ2 (P09382 2-135 limits assumed): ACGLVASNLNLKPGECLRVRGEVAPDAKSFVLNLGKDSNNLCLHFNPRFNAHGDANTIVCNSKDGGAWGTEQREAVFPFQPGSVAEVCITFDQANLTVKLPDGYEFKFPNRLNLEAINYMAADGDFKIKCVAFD

[5] = molecular target: galectin 9 interaction with integrin αMβ2 (Homo sapiens, UniProt O00182); experiment: ELISA galectin 9 interaction with integrin αMβ2; type: binding; conditions: FIG. 8E
Chain of galectin 9 interaction with integrin αMβ2 (O00182 whole entry): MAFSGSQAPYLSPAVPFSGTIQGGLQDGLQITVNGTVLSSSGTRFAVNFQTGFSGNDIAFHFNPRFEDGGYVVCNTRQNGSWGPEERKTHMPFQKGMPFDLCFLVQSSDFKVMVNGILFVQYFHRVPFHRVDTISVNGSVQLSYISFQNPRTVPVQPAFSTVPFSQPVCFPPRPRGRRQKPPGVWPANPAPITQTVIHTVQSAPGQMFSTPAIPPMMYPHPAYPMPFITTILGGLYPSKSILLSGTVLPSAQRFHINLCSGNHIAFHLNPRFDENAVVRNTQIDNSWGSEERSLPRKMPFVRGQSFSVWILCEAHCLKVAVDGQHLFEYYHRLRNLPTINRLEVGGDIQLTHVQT
Source text: as §1

[6] = molecular target: Gal-3 binding to IGF-R1 (gene IGF1R) (Homo sapiens, UniProt P17931); experiment: ELISA Gal-3 binding to Insulin Like Growth Factor 1 Receptor; conditions: FIGS. 12G-1 to 12G-3
Chain of Gal-3 binding to IGF-R1 (gene IGF1R) (P17931 2-250 limits assumed): as the sequence (P17931 2-250 limits assumed) above
Description: Using the ELISA composition assay described herein, in which the compounds were incubated with Gal-3 and the binding of Gal-3 with IGF-Receptor was tested.

T1 sequence (P17931 whole entry): as the sequence (P17931 whole entry) above

Row | Compound | interaction with amino-acids located in the CRD site (HSQC NMR) [1] | Fluorescent Polarization inhibition signal [2] | specificity for Gal-3 vs other galectins (1, 8, 9) ([3]; ELISA with integrin αMβ2, FIGS. 8D and 8E) | inhibition of Integrin αMβ2 interaction with Gal-3 ([3]; ELISA, FIGS. 8B, 8C, 12C) | inhibition of galectin 1 interaction with integrin αMβ2 [4] | inhibition of galectin 9 interaction with integrin αMβ2 [5] | effect on Gal-3 binding to IGF-R1 [6]
1 | OC[C@H]1O[C@@H](S[C@@H]2O[C@H](CO)[C@H](O)[C@H](n3cc(-c4cccc(F)c4)nn3)[C@H]2O)[C@H](O)[C@@H](n2cc(-c3cccc(F)c3)nn2)[C@H]1O [TD-139] | create disturbances of amino-acid located in the CRD site | strong signal | non-specific interaction | inhibition | inhibited | inhibited | cause inhibition
2 | Cc1ccc(COc2ccc(C=C3CCn4c3nc(=O)c3ccccc34)cc2)cc1 [AGS-0144, 3-({4-[(4-methylphenyl)methoxy]phenyl}methylidene)-1H,2H,3H,5H-pyrrolo[1,2-a]quinazolin-5-one] | have not directly interact with these amino-acids |  |  |  |  |  | 
